PMC7100991 (PLoS Pathogens, 2020)
pIC50: −log10 of the molar value.

Target: T1, Fusarium graminearum myosin I (FgMyoI) (Fusarium graminearum, UniProt I1RCT2)
T1 construct: gene FGRAMPH1_01T03465
Test: biochemical

## CCOC(=O)/C(C#N)=C(\N)c1ccccc1 [phenamacril]
  pIC50: 6.44
